According to patent US8895744B2, “Alfa-carboline inhibitors of NPM-ALK, RET, and Bcr-Abl” (Universita' Degli Studi di Milano-Bicocca, priority 2008, dated 2014):

Experiments:
Recombinant ALK kinase = target: T1, Recombinant ALK kinase (Homo sapiens, UniProt Q9UM73); assay: ALK kinase inhibitory activity, ELISA-based in vitro kinase assay; assay type: biochemical; settings: purified rALK, 0.3 mM ATP, read-out: ALK IC50
T1 construct: made in house; host or cells: Sf9 insect cells (baculovirus)
Protocol: 36. Alk Kinase Inhibitory Activity
(§1) Method: ELISA-Based In Vitro Kinase Assay
(§2) Recombinant ALK kinase was expressed in Sf9 insect cells using the pBlueBacHis2C baculovirus vector system and purified using an anion exchange Fast Flow Q-sepharose column (Amersham-Pharmacia Biotech) followed by HiTrap™-nickel affinity column (Amersham-Pharmacia Biotech). Purified ALK protein was used to screen inhibitors in the ELISA-based kinase assay. A Nunc Immuno 96 well plate was incubated overnight at 37° C. with coating solution (125 μL/well) containing ALK peptide substrate ([…]) (SEQ ID NO: 1) at various concentrations in PBS. Wells were then washed with 200 μL of wash buffer (PBS-Tween 0.05%) and left to dry for at least 2 h at 37° C. The kinase reaction was performed in the presence of 50 mM Tris pH 7.5, 5 mM MnCl2, 5 mM MgCl2, 0.3 mM ATP and purified rALK in a total volume of 100 μL/well at 30° C. for 15 min. For inhibitor testing the reaction mix was preincubated with the inhibitor or solvent control for 10 min at room temperature before transferring to the ELISA plate. After the reaction wells were washed 5 times with 200 μL of wash buffer. Phosphorylated peptide was detected using 100 μL/well of a mouse monoclonal anti-phosphotyrosine antibody (clone 4G10 Upstate Biotech Ltd) diluted 1:2000 in PBS+4% BSA. After 30 min incubation at room temperature the antibody was removed and wells were washed as described above. 100 μL of a secondary antibody (anti-mouse IgG, Horseradish Peroxidase linked whole antibody, Amersham Pharmacia Biotech) diluted 1:1000 in PBS+4% BSA was added to each well and the plate was incubated again for 30 min at room temperature before washing as above. The plate was developed using 100 μL/well TMB Substrate Solution (Endogen) and the reaction was stopped by adding an equiv.ual volume of H2SO4 0.36 M. Finally, the absorbance was read at 450 nm using an Ultrospec® 300 spectrophotometer (Amersham-Pharmacia Biotech). The concentration of the test solution showing 50% inhibition as compared with the control was expressed as IC50 (μM).

[1] = system: parent untransformed BaF3 cells; assay: Tritiated thymidine uptake cell proliferation assay, parental BaF3 (control); assay type: cell-based; settings: Mus musculus, 3[H]-thymidine uptake, 72 h, medium with IL-3, read-out: BaF parental IC50
Protocol: (§3) Method: Tritiated Thymidine Uptake Cell Proliferation Assay
(§4) The following procedure was used with parent untransformed BaF3 cells, BaF3 cells transformed with the oncogenic fusion protein NPM/ALK, NPM/ALK positive SUDHL-1 cells, ALK-negative U937 cells, NPM/ALK positive KARPAS-299 cells. The parent untransformed BaF3 cells and Alk-negative U937 cells are used as controls. Cells were seeded in U-bottomed 96-well plates at 10 000 cells/well in a volume of 100 μL in supplemented medium. In the case of the parent untransformed BaF3 cells, the medium was supplemented with IL-3. Serial dilutions of inhibitors were added to the appropriate wells and volumes adjusted to 200 μL. Controls were treated with the equivalent volume of vehicle, DMSO, alone. Plates were incubated at 37° C. for 72 h. ^3[H]-thymidine (1 μCi/well) was added for the last 16 h of incubation. Cells were harvested on to paper filters and ^3[H]-thymidine incorporation was measured using a β scintillation counter (1430 MicroBeta, Wallac, Turku, Finland). The 50% inhibitory concentration (IC50) was defined as the concentration of inhibitor, expressed in micromolar, that gave a 50% decrease in ^3[H]-thymidine uptake compared with controls.
as §4, with “protein bcr-abl, Abl-negative” for “protein NPM/ALK, NPM/ALK positive SUDHL-1 cells, ALK-negative”, “cells, or Bcr-abl” for “cells, NPM/ALK”, “positive LAMA-84” for “positive KARPAS-299”, “and Abl-negative” for “and Alk-negative”, “in ^3H-thymidine” for “in ^3[H]-thymidine”
as §4, with “RET-PTC2, or RET-negative 11937” for “NPM/ALK, NPM/ALK positive SUDHL-1 cells, ALK-negative U937 cells, NPM/ALK positive KARPAS-299”, “RET-negative” for “Alk-negative”

[2] = target: T2, BaF3 cells transformed with the oncogenic fusion protein NPM/ALK (Homo sapiens, UniProt Q9UM73); assay: Tritiated thymidine uptake cell proliferation assay, BaF3 NPM/ALK; assay type: cell-based; settings: 3[H]-thymidine uptake, 72 h; read-out: BaF NPM/ALK IC50
T2 construct: fused on or other part: P06748 (Nucleophosmin)
T2 sequence (Q9UM73 whole entry, change not shown, the tested form may be a part): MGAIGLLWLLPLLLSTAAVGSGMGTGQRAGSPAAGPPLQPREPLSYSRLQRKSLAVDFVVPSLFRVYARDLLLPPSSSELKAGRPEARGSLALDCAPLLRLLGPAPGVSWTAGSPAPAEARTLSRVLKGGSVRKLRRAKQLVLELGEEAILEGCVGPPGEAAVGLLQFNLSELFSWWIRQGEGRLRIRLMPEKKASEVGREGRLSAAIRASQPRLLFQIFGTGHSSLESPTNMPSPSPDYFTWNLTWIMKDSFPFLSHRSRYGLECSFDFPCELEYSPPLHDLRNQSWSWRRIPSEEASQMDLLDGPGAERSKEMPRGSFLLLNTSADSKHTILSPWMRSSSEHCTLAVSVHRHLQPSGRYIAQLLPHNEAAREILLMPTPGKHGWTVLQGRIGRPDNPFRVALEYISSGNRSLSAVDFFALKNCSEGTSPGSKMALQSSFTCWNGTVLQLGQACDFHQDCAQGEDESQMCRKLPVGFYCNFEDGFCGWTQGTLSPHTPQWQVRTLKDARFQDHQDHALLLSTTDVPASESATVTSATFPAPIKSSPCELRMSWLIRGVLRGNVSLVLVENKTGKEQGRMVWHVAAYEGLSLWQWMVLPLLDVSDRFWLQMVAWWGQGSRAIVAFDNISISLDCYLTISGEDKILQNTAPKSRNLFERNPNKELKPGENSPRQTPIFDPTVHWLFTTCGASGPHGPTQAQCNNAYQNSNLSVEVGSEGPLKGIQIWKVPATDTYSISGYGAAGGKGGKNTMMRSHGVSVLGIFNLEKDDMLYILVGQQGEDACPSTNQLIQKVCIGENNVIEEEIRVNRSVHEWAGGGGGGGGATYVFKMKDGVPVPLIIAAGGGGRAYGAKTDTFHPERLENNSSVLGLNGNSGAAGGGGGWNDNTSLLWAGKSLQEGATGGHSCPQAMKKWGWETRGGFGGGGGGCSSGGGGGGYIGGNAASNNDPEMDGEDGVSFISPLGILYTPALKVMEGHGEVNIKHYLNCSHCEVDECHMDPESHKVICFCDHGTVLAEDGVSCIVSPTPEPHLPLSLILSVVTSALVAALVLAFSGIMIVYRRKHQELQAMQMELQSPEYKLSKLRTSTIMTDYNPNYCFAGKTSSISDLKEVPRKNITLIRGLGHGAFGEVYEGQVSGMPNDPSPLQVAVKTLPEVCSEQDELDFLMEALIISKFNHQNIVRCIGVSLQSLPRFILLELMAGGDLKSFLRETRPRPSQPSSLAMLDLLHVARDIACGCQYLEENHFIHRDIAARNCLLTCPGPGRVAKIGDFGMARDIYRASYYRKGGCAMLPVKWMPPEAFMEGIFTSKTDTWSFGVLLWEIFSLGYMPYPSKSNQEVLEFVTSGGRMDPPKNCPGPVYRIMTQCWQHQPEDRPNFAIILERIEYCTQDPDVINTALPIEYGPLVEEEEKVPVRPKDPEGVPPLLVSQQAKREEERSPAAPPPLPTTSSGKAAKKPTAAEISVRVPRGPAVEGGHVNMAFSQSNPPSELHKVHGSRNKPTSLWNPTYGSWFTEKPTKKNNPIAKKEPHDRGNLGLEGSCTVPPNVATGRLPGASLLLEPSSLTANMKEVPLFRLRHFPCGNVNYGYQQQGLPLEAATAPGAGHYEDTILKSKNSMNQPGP
Protocol: Inhibition of the proliferation of NPM/ALK positive cells
as §3, §4

[3] = target: T3, Recombinant Abl T315I protein (Homo sapiens, UniProt P00519, T315I); assay: Abl T315I mutant kinase inhibitory activity, ELISA-based in vitro kinase assay; assay type: biochemical; settings: purified Abl T315I, 0.3 mM ATP
T3 construct: made in house; host or cells: Sf9 cells (baculovirus)
Protocol: as §2
37. Abl T315I Mutant Kinase Inhibitory Activity
as §1
Recombinant Abl T315I protein was expressed in Sf9 cells using the pBlueBacHis2C baculovirus expression vector. Abl T315I was purified using an anion exchange Fast Flow Q-sepharose column (Amersham-Pharmacia Biotech) followed by HiTrap™-nickel affinity column (Amersham-Pharmacia Biotech). Purified Abl T315I was used in the ELISA-based kinase assay to screen inhibitors as described above. The kinase reaction was performed in the presence of 50 mM Tris pH 7.5, 1 mM MnCl2, 5 mM MgCl2, 0.3 mM ATP, peptide substrate ([…]) (SEQ ID NO: 1) and purified Abl T315I. The concentration of the test solution showing 50% inhibition as compared with the control was expressed as IC50 (μM).

T1 sequence (Q9UM73 19-1620): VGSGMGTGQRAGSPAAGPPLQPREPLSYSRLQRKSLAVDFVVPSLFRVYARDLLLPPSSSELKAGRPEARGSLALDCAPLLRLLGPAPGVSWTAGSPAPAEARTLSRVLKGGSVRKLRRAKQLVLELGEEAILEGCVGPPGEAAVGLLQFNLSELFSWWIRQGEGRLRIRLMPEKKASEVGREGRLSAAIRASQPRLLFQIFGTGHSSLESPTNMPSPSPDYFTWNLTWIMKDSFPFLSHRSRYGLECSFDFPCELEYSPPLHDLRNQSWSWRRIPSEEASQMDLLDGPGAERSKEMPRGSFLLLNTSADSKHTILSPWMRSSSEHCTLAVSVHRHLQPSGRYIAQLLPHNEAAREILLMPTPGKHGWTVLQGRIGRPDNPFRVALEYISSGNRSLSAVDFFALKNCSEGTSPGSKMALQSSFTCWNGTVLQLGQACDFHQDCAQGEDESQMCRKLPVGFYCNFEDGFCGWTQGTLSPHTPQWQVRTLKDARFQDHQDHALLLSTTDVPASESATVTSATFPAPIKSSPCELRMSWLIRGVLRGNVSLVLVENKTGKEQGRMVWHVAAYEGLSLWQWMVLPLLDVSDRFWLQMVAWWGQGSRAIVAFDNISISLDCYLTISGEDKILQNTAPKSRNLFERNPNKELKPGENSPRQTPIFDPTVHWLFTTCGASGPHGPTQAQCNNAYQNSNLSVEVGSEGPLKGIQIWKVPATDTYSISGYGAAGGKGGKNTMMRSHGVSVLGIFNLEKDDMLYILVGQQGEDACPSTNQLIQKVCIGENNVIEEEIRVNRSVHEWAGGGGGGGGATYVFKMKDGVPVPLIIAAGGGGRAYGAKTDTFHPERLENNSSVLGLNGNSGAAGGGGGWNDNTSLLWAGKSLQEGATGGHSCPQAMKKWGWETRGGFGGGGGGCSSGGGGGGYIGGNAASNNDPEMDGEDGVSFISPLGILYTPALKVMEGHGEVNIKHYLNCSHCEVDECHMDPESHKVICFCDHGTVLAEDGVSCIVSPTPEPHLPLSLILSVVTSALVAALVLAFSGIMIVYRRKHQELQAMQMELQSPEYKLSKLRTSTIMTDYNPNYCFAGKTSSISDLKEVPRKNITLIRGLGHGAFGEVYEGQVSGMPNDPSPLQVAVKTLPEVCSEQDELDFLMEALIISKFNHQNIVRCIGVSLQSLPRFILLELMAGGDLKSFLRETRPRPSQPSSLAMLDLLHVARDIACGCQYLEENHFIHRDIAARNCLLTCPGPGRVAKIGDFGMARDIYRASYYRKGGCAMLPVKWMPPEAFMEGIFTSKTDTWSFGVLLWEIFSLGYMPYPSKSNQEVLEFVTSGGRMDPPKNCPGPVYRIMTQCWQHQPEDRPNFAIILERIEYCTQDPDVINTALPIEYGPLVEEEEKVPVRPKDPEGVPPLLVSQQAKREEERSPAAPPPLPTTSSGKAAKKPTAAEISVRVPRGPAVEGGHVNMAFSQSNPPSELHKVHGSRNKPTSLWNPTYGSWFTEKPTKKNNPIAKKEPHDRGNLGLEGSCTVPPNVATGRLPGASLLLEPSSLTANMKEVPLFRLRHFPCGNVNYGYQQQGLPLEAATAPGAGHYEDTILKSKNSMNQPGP

| Compound | IC50 (Recombinant ALK kinase) [µM] | GI50 [2] [µM] | IC50 [3] [µM] | IC50 [1] [µM] |
| --- | --- | --- | --- | --- |
| COC(=O)C(=O)c1ccc2[nH]c3nc(C)ccc3c2c1 [R241, Methyl 2-oxo-2-[2-methyl-9H-pyrido[2,3-b]indol-6-yl]acetate] | 25.3 ± 2.6 | – | – | – |
| CC(=O)c1ccc2[nH]c3nc(C)ccc3c2c1 [R242, 6-acetyl-2-methyl-9H-pyrido[2,3-b]indole] | 87.1 ± 1.3 | – | – | – |
| CNCC(=O)c1ccc2[nH]c3ncccc3c2c1 [R245] | 82.4 ± 8.1 | – | – | – |
| CN(C)/C=C/C(=O)c1ccc2[nH]c3ncccc3c2c1 [R246] | 55.1 ± 16.9 | – | – | – |
| Nc1cccc(-c2ccc3[nH]c4ncccc4c3c2)n1 [R247] | > 100 | – | – | – |
| O=C(Nc1ccc2[nH]c3ncccc3c2c1)c1ccccc1 [R249] | > 100 | – | – | – |
| COc1ccc2sc(SCC(=O)c3ccc4[nH]c5ncc(Cl)cc5c4c3)nc2c1 [R301, 1-(3-chloro-9H-pyrido[2,3-b]indol-6-yl)-2-(5-methoxybenzothiazol-2-ylsulfanyl)éthanone] | 38 ± 16 | – | – | – |
| CN1CCN(C(=O)CCC(=O)c2ccc3[nH]c4ncc(Cl)cc4c3c2)CC1 [R303, 1-(3-Chloro-9H-pyrido[2,3-b]indol-6-yl)-4-(4-methylpiperazin-1-yl)butane-1,4-dione] | 93 ± 1 | 5.1 | 87 | 9.5 |
| Clc1cnc2[nH]c3ccc(-c4ccc(N5CCOCC5)cn4)cc3c2c1 [R308, 3-Chloro-6-(5-morpholin-4-yl-pyridin-2-yl)-9H-pyrido[2,3-b]indole] | > 100 | 60 | – | 50 |
| C(=C\c1ccc2c(n1)[nH]c1ccc(-c3ccc(CN4CCOCC4)cc3)cc12)/c1ccccc1 [R316] | > 33 | 10 | – | > 33 |
| C(=C\c1ccc2[nH]c3nc(Nc4ccccc4)ccc3c2c1)/c1ccccc1 [R320] | – | – | – | 23 |
| COc1cccc(Nc2ccnc3[nH]c4ccccc4c23)c1 [R324, N-(3-methoxyphenyl)-9H-pyrido[2,3-b]indol-4-amine] | > 100 | 3.8 | – | 1.7 |
| c1coc(-c2cnc3[nH]c4ccccc4c3c2)c1 [R325, 3-(furan-2-yl)-9H-pyrido[2,3-b]indole] | – | > 100 | – | > 100 |
| O=[N+]([O-])c1cccc(-c2cnc3[nH]c4ccccc4c3c2)c1 [R328, 3-(3-nitrophenyl)-9H-pyrido[2,3-b]indole] | 48 ± 17 | 13 | – | 6.8 |
| COc1cccc(Nc2cnc3[nH]c4ccccc4c3c2)c1 [R344, N-(3-methoxyphenyl)-9H-pyrido[2,3-b]indol-3-amine] | > 100 | – | – | – |
| c1c[nH]c(-c2ccc3c(n2)[nH]c2ccccc23)c1 [R355, 2-(1H-pyrrol-2-yl)-9H-pyrido[2,3-b]indole] | > 100 | – | – | – |
| COc1ccc(-c2ccc3[nH]c4ncc(-c5cccc([N+](=O)[O-])c5)cc4c3c2)cc1 [R356] | > 100 | – | – | – |
| COc1ccc(-c2ccc3[nH]c4ncc(-c5cccc(N)c5)cc4c3c2)cc1 [R357, 3-(6-(4-methoxyphenyl)-9H-pyrido[2,3-b]indol-3-yl)benzenamine] | > 100 | – | – | – |
| Fc1cccc(/C=C/c2cnc3[nH]c4ccc(/C=C/c5ccccc5)cc4c3c2)c1 [R359, 3-((E)-2′-(3-fluorophenyl)ethenyl)-6-(E)-(2-(phenyl)ethenyl)-9H-pyrido[2,3-b]indole] | > 100 | – | – | – |

Further lines, with some results ahead:

| IC50 (Recombinant ALK kinase) [µM] | GI50 [2] [µM] | IC50 [3] [µM] | Compound | IC50 [1] [µM] |
| --- | --- | --- | --- | --- |
| 15.3 ± 1.5 | – | – | Cc1ccc2c(n1)[nH]c1ccc(C(=O)c3ccccc3)cc12 [R243, 6-benzoyl-2-methyl-9H-pyrido[2,3-b]indole] | – |
| 14.6 ± 2.8 | – | – | O=[N+]([O-])/C=C/c1ccc2[nH]c3ncccc3c2c1 [R244] | – |
| 9.7 ± 1.3 | – | – | O=C(CBr)c1ccc2[nH]c3ncc(Cl)cc3c2c1 [R251, 2-Bromo-1-(3-chloro-9H-pyrido[2,3-b]indol-6-yl)ethanone] | – |
| 24 ± 2 | 4.8 | – | CN1CCN(C(=O)CCC(=O)c2ccc3[nH]c4nc(Cl)ccc4c3c2)CC1 [R302, 1-(2-Chloro-9H-pyrido[2,3-b]indol-6-yl)-4-(4-methylpiperazin-1-yl)butane-1,4-dione] | 5.8 |
| 17 ± 1 | 5.2 | 16 | CCN(CC)CCSCC(=O)c1ccc2[nH]c3nc(Cl)ccc3c2c1 [R305, 1-(2-Chloro-9H-pyrido[2,3-b]indol-6-yl)-2-(N,N-diethylaminoethylsulfanyl)ethan-1-one] | 5.5 |
| 18 ± 1 | 0.3 | – | CCN(CC)CCSCC(=O)c1ccc2[nH]c3nc(Nc4cccc([N+](=O)[O-])c4)ccc3c2c1 [R321, 2-(2′-(N,N-diethylamino)ethylthio)-1-[2-(3-nitrophenylamino)-9H-pyrido[2,3-b]indol-6-yl]ethanone] | 0.7 |
| 20 ± 4 | 57 | – | O=[N+]([O-])c1cccc(Nc2ccnc3[nH]c4ccccc4c23)c1 [R322, N-(3-nitrophenyl)-9H-pyrido[2,3-b]indol-4-amine] | > 100 |
| 12 ± 7 | > 100 | – | c1ccc(-c2ccc(-c3cnc4[nH]c5ccccc5c4c3)cc2)cc1 [R329, 3-(4-phenylphenyl)-9H-pyrido[2,3-b]indole] | > 100 |
| 14 ± 2 | > 100 | – | c1ccc(-c2ccc(-c3ccnc4[nH]c5ccccc5c34)cc2)cc1 [R330, 4-(4-phenylphenyl)-9H-pyrido[2,3-b]indole] | > 100 |
